From patent publication US11464854B2, “Methods and compositions relating to adjuvants” (Children's Medical Center Corporation, priority 2017, dated 2022)

What was measured:
adult human PBMCs = test: Adult human PBMC stimulation
human TLR8 = molecular target: T1, human TLR8 (Homo sapiens, UniProt Q9NR97); test: HEK293 NF-kB SEAP reporter assay, human TLR8; assay type: cell-based
T1 construct: host or cells: HEK293 with NF-kB-responsive SEAP reporter
T1 sequence (Q9NR97 27-1041): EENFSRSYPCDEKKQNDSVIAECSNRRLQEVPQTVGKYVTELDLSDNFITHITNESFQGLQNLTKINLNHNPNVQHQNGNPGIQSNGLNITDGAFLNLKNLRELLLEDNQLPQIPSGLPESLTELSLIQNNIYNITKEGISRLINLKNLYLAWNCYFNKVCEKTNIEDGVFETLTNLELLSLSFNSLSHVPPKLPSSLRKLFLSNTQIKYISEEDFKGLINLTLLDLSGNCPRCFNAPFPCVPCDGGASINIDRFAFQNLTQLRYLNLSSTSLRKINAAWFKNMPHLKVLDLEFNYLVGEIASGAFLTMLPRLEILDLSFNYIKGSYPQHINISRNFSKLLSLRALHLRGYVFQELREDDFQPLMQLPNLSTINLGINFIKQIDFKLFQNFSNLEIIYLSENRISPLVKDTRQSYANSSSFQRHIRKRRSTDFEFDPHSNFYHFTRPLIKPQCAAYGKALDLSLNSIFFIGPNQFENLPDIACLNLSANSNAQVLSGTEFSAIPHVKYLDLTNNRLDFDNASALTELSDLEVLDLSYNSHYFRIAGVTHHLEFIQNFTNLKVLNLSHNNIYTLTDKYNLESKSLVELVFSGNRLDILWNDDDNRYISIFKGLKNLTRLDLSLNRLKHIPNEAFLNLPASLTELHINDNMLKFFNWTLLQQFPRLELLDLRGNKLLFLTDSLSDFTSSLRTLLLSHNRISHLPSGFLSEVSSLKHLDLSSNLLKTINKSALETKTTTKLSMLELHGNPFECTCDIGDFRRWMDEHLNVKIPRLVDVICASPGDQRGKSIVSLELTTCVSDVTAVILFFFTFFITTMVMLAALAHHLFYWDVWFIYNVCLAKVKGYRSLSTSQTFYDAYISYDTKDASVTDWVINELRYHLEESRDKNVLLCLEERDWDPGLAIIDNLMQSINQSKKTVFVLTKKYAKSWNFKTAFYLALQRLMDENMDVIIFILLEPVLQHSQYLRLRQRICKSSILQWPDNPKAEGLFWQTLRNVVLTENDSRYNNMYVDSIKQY
Protocol: Human embryonic kidney (HEK)293 cells expressing human TLR7 or TLR8 with an NF-κB-responsive secreted embryonic alkaline phosphatase (SEAP) reporter gene were obtained from Novus Biologicals (Littleton, Colo.) and Invivogen (San Diego, Calif.), respectively. Cells were maintained in DMEM with 10% HI-FBS and selection antibiotics per the manufacturer's instructions. Cells were plated at 5×10^5 cells/96-well and stimulated with indicated agonist(s) for 24 h. Supernatants were harvested and analyzed for NF-κB/SEAP activation using the QuantiBlue™ kit (Invivogen). Values are expressed as fold change in OD650 over vehicle-only treated samples.

[1] = tested on: influenza hemagglutinin (HA); test: Mouse immunization with influenza hemagglutinin (HA), HA-specific serum Ig by ELISA; assay type: in vivo, Balb/c mice; details: three times, Day 77
TNF = test: Rat pharmacodynamics: serum TNF by ELISA; assay type: in vivo, rats; details: rats, single IM or SC administration
human TLR7 = molecular target: T2, human TLR7 (Homo sapiens, UniProt Q9NYK1); details: HEK293 cells stably expressing human TLR7 (ref. 24); cited from earlier work
T2 construct: host or cells: HEK293 with NF-kB-responsive SEAP reporter
T2 sequence (Q9NYK1 27-1049): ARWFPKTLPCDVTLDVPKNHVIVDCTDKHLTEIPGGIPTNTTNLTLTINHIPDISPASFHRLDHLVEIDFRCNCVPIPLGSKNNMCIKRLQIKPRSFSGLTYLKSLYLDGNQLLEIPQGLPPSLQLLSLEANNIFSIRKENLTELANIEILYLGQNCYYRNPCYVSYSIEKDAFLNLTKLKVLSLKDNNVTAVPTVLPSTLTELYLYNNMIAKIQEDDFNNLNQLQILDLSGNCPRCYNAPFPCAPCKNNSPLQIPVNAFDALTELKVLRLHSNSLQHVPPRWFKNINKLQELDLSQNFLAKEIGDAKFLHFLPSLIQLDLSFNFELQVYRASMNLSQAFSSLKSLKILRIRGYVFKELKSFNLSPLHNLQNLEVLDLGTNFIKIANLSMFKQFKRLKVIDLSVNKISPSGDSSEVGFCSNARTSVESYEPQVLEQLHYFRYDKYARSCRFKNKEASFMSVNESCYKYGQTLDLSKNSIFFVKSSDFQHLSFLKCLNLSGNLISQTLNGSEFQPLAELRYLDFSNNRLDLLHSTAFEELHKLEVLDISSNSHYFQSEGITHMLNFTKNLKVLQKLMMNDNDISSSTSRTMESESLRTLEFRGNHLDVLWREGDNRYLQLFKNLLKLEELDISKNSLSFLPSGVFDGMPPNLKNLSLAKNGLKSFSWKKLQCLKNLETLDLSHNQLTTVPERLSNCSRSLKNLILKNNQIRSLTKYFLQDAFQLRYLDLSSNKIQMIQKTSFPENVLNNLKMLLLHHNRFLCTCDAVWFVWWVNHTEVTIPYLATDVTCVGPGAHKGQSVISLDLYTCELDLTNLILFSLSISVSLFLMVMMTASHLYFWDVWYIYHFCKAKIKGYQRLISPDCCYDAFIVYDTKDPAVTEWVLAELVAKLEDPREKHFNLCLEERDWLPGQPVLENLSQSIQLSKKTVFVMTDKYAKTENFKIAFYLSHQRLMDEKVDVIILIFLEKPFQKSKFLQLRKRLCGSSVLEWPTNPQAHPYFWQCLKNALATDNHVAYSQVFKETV

Compound | expression of CD123, HLA-D, CD80 and CD86 (adult human PBMCs; 24 h, compared to unstimulated cells, flow cytometry) | cytokine skewing (adult human PBMCs; adult PBMCs) | TLR7 vs. TLR8 selectivity (human TLR8; HEK293 assay) | potency for hTLR8 (human TLR8; among six IMQ and OA compounds, SEAP fold change) | antigen-specific IgG levels (IgG1, IgG2a) ([1]; HA 10 μg with 0.01-1 mg/kg 3M-052 SC) | HA-specific IgG2a Ab production ([1]; added to Alum-adjuvanted HA 10 μg, 0.1 mg/kg 3M-052 SC) | Blood tumor necrosis factor (TNF) concentrations, peak (TNF) | agonist activity, human TLR7 (human TLR7)
CCCCc1nc2c(N)nc3ccccc3c2n1CCO [CRX-649] | increased expression | pro-inflammatory biased | preference for TLR8 | greatest potency | – | – | – | –
CCCCCCCCCCCCCCCCCC(=O)NCCCCOn1c(CCCC)nc2c(N)nc3ccccc3c21 [3M-052, N-[4-[(4-amino-2-butyl-1H-imidazo[4,5-c]quinolin-1-yl)oxy]butyl]octadecanamide] | – | – | – | – | enhances antigen-specific IgG levels | markedly enhances | no induced systemic TNF detectable | Dual agonist activity
